From the NIST ThermoML archive (doi:10.1021/je800243y)
Numbers after ± are expanded uncertainties.

Experiment: molar heat capacity at constant pressure
Conditions: 101.33 kPa, Crystal, Large sample (1 g) DSC

| Compound | molar heat capacity at constant pressure (298.15 K) | molar heat capacity at constant pressure (303.15 K) | molar heat capacity at constant pressure (308.15 K) | molar heat capacity at constant pressure (313.15 K) | molar heat capacity at constant pressure (318.15 K) | molar heat capacity at constant pressure (323.15 K) | molar heat capacity at constant pressure (328.15 K) | molar heat capacity at constant pressure (333.15 K) | molar heat capacity at constant pressure (338.15 K) | molar heat capacity at constant pressure (343.15 K) | molar heat capacity at constant pressure (348.15 K) | molar heat capacity at constant pressure (353.15 K) | molar heat capacity at constant pressure (358.15 K) | molar heat capacity at constant pressure (363.15 K) | molar heat capacity at constant pressure (368.15 K) |
| --- | --- | --- | --- | --- | --- | --- | --- | --- | --- | --- | --- | --- | --- | --- | --- |
| O=c1[nH]c(=O)n([C@@H]2O[C@H](CO)[C@@H](O)[C@H]2O)cc1Br [5-bromouridine] | 305.69 ± 6.1 J/K/mol | 306.16 ± 6.1 J/K/mol | 306.64 ± 6.1 J/K/mol | 307.11 ± 6.1 J/K/mol | 307.58 ± 6.2 J/K/mol | 308.05 ± 6.2 J/K/mol | 308.52 ± 6.2 J/K/mol | 308.99 ± 6.2 J/K/mol | 309.47 ± 6.2 J/K/mol | 309.94 ± 6.2 J/K/mol | 310.41 ± 6.2 J/K/mol | 310.88 ± 6.2 J/K/mol | 311.35 ± 6.2 J/K/mol | 311.82 ± 6.2 J/K/mol | 312.29 ± 6.2 J/K/mol |
| O=c1[nH]c(=O)n([C@@H]2O[C@H](CO)[C@@H](O)[C@H]2O)cc1I [2,4-dihdroxy-5-iodo-1-β-D-ribofurnosylpyrimidine] | 337.43 ± 6.8 J/K/mol | 338.14 ± 6.8 J/K/mol | 338.86 ± 6.8 J/K/mol | 339.57 ± 6.8 J/K/mol | 340.29 ± 6.8 J/K/mol | 341 ± 6.8 J/K/mol | 341.72 ± 6.8 J/K/mol | 342.43 ± 6.8 J/K/mol | 343.15 ± 6.9 J/K/mol | 343.86 ± 6.9 J/K/mol | 344.58 ± 6.9 J/K/mol | 345.29 ± 6.9 J/K/mol | 346.01 ± 6.9 J/K/mol | 346.72 ± 6.9 J/K/mol | 347.44 ± 7 J/K/mol |
| O=c1[nH]c(=O)n([C@H]2C[C@H](O)[C@@H](CO)O2)cc1Br [5-bromo-2'-deoxyuridine] | 260.65 ± 5.2 J/K/mol | 263.37 ± 5.3 J/K/mol | 266.08 ± 5.3 J/K/mol | 268.8 ± 5.4 J/K/mol | 271.51 ± 5.4 J/K/mol | 274.23 ± 5.5 J/K/mol | 276.94 ± 5.5 J/K/mol | 279.66 ± 5.6 J/K/mol | 282.38 ± 5.7 J/K/mol | 285.09 ± 5.7 J/K/mol | 287.81 ± 5.8 J/K/mol | 290.52 ± 5.8 J/K/mol | 293.24 ± 5.9 J/K/mol | 295.95 ± 5.9 J/K/mol | 298.66 ± 6 J/K/mol |

Other lines, results leading:

| molar heat capacity at constant pressure (298.15 K) | molar heat capacity at constant pressure (303.15 K) | molar heat capacity at constant pressure (308.15 K) | molar heat capacity at constant pressure (313.15 K) | molar heat capacity at constant pressure (318.15 K) | molar heat capacity at constant pressure (323.15 K) | molar heat capacity at constant pressure (328.15 K) | molar heat capacity at constant pressure (333.15 K) | molar heat capacity at constant pressure (338.15 K) | molar heat capacity at constant pressure (343.15 K) | molar heat capacity at constant pressure (348.15 K) | molar heat capacity at constant pressure (353.15 K) | molar heat capacity at constant pressure (358.15 K) | molar heat capacity at constant pressure (363.15 K) | molar heat capacity at constant pressure (368.15 K) | Compound |
| --- | --- | --- | --- | --- | --- | --- | --- | --- | --- | --- | --- | --- | --- | --- | --- |
| 263.41 ± 5.3 J/K/mol | 266.16 ± 5.3 J/K/mol | 268.9 ± 5.4 J/K/mol | 271.65 ± 5.4 J/K/mol | 274.39 ± 5.5 J/K/mol | 277.14 ± 5.5 J/K/mol | 279.89 ± 5.6 J/K/mol | 282.63 ± 5.7 J/K/mol | 285.38 ± 5.7 J/K/mol | 288.12 ± 5.8 J/K/mol | 290.86 ± 5.8 J/K/mol | 293.6 ± 5.9 J/K/mol | 296.36 ± 5.9 J/K/mol | 299.1 ± 6 J/K/mol | 301.84 ± 6 J/K/mol | O=c1ccn([C@H]2C[C@H](O)[C@@H](CO)O2)c(=O)[nH]1 [2'-deoxyuridine] |
| 276.7 ± 5.5 J/K/mol | 278.84 ± 5.6 J/K/mol | 280.97 ± 5.6 J/K/mol | 283.12 ± 5.7 J/K/mol | 285.25 ± 5.7 J/K/mol | 287.4 ± 5.8 J/K/mol | 289.53 ± 5.8 J/K/mol | 291.68 ± 5.8 J/K/mol | 293.81 ± 5.9 J/K/mol | 295.95 ± 5.9 J/K/mol | 298.09 ± 6 J/K/mol | 300.23 ± 6 J/K/mol | 302.37 ± 6 J/K/mol | 304.51 ± 6.1 J/K/mol | 306.65 ± 6.1 J/K/mol | Cc1cn([C@H]2C[C@H](O)[C@@H](CO)O2)c(=O)[nH]c1=O [thymidine] |
| 285.34 ± 5.7 J/K/mol | 287.61 ± 5.8 J/K/mol | 289.88 ± 5.8 J/K/mol | 292.15 ± 5.8 J/K/mol | 294.43 ± 5.9 J/K/mol | 296.69 ± 5.9 J/K/mol | 298.96 ± 6 J/K/mol | 301.22 ± 6 J/K/mol | 303.48 ± 6.1 J/K/mol | 305.76 ± 6.1 J/K/mol | 308.02 ± 6.2 J/K/mol | 310.3 ± 6.2 J/K/mol | 312.55 ± 6.2 J/K/mol | 314.82 ± 6.3 J/K/mol | 317.09 ± 6.3 J/K/mol | O=c1[nH]c(=O)n([C@H]2C[C@H](O)[C@@H](CO)O2)cc1I [5-iodo-2'-deoxyuridine] |
